The values that follow come from patent publication US20250134895A1, “METHODS AND COMPOSITIONS FOR TREATING ALPHA-SYNUCLEIN-MEDIATED NEURODEGENERATION” (UNIVERSITY HEALTH NETWORK, priority 2021, published 2025).

SMILES strings stand for the structures.

One experiment deals with HSP70 mRNA. Briefly: Real-time quantitative RT-PCR of HSP70 mRNA in rat primary cortical neurons. The conditions noted are these: 10 μM. Format: cell-based. On the procedure: FIG. 18. […] Real-time quantitative RT-PCR was performed with 3 distinct primer sets for HSP70. β-Actin was used as the reference gene and the expression of HSP70 mRNA was analyzed by 2^−ΔΔCT method. The control group treated with DMSO was set as calibrator sample representing the 1×expression. Data are presented as mean±SEM. (n=3 independent experiments, unpaired two-tailed Student's t-test, ** p<0.01)
To investigate the mechanism underlying these drug effects, experiments were directed towards the potential involvement of molecular chaperone HSP70. […] To investigate the in silico predictions of HSP70 interactions with top drug candidates from the Cyclica proteome screening, fluorescence intensity was measured in V1 S-SV2 primary cortical rat neurons (FIGS. 15A and E) for potential effects on α-synuclein oligomers.
Total RNA was isolated from the cultured neurons on DIV 5 using RNeasy Mini Kit (50) (Qiagen, Cat #74104) according to the manufacturer's instructions. RNA quantity and purity were determined by spectrophotometric analysis (NanoDrop 2000c; Thermo Scientific). […] Quantitative real-time PCR was performed in the Quant Studio™ 5 Real-Time PCR System (ThermoFisher Scientific) using Power Track™ SYBR Green Master Mix (Invitrogen, Cat #A46109). […]

A further experiment has as its system control GFP C. elegans. Kind of experiment: Coiler score and locomotion of control GFP C. elegans. The class given is in vivo, Caenorhabditis elegans. On the procedure: Animals were synchronized by isolating eggs using alkaline hypochlorite treatment and hatching overnight. Larvae were plated onto NGM agar plates with OP50 and grown for 4 days before recording locomotion. For individual C. elegans recordings, a single adult animal was randomly picked, washed for 1 to 2 minutes in M9 buffer, and then transferred to a fresh NGM plate without food for imaging. Video images were acquired (2 frames per second) for up to 6 minutes using a sCMOS camera (pco.edge, PCO) mounted on a stereomicroscope (Olympus MVX10 MacroView) controlled using the μManager software.^55 A total of 40 individual animals were imaged for each strain. For C. elegans population recordings, ten adult animals were randomly removed using an eyelash pick, washed for 1 minute in M9 buffer, and then transferred to a fresh NGM plate without food, with a ring of copper sulfate solution (150 mM) around the area of recording (a chemorepellent to keep the animals in the recording frame). Exploratory locomotion was recorded using a CCD camera (GX1920, Allied Vision) which was attached to a dissecting stereomicroscope (Leica M165C, 1.0× PlanApo lens). […] Using ImageJ, the displacement, perimeter, and area of each animal was calculated, from which a circularity value was computed using the following formula: circularity=4π(A/P^2), where A is the area of the animal's body and P is the perimeter of the animal's body (both expressed in arbitrary pixel units). […] Using MATLAB (Mathworks), various behavioural metrics including the coiler score were calculated, which is the percentage of frames with a circularity value >0.6. Speed was automatically computed from the ImageJ based WrmTrk plugin as the distance travelled by each animal (in pixels) over the amount of time that it was tracked (in seconds).56 Average speed was determined by calculating the weighted average of each tracked animal's speed within a single population of animals. […]
C. elegans were grown and maintained as previously described (Examples 1-6). […] After 72 hours of drug treatment, animals were randomly picked, washed, and recorded. […]

For the compound `Nc1nc(NC2CC2)c2ncn([C@H]3C=C[C@@H](CO)C3)c2n1` [Abacavir, abacavir], in the experiment on HSP70 mRNA, the “HSP70 mRNA levels compared with vehicle control” value is “increased”. Moreover, in the experiment with control GFP C. elegans (100 μM), the “speed of GFP worms” value is given as “no differences”. Further, the “coiling / coiler score of control GFP animals” value in the experiment on control GFP C. elegans (100 μM of drug) is listed as “no differences”.
